According to paper PMC11284788, “NN1213 – A Potent, Long-Acting, and Selective Analog of Human Amylin” (Journal of Medicinal Chemistry, 2024):
Numbered stars: 1 amine (or outer) side, 2 acyl side, 3 side chain; on linkers, the order of the positions; unused ones are H or OH. Bridge positions count the residues as written; N and C are the ends. Side chains are listed from the residue outwards. Peptide text beside a SMILES is read from it. * marks the point of attachment. C20 diacid = O=C(O)CCCCCCCCCCCCCCCCCCC(=O)*; γGlu = O=C(O)[C@H](CCC(=O)[*:2])N[*:1]; AEEA = NCCOCCOCC(=O)O

Assays:
hCTR = biological target: T1, hCTR (Homo sapiens, UniProt P30988); test: cAMP-responsive element luciferase reporter assay, human CTR; assay type: cell-based; conditions: luciferase (human receptor assay); for hCTR pEC50: Tables S12 and S14
T1 sequence (P30988 25-474): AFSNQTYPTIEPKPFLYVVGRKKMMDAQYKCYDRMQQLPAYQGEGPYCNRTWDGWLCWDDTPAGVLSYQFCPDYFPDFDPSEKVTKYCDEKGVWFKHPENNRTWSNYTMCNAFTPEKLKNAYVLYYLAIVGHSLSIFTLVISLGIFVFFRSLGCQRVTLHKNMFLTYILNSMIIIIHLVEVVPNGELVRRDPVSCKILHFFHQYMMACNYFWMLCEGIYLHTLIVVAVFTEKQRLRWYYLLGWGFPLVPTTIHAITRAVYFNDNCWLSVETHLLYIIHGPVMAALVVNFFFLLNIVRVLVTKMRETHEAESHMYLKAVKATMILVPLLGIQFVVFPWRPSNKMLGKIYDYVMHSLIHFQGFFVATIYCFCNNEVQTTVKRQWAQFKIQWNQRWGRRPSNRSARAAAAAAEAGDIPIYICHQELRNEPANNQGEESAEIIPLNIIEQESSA

hAMY3R = biological target: T2, hAMY3R (Homo sapiens, UniProt O60896+P30988); test: scintillation proximity binding assay, hAMY3R membranes; set-up: expressed in transfected cells; host or cells: BHK tk-ts 13, transient co-transfection; membranes for the SPA, whole cells for the species-specific assays; conditions: for ratio hCTR/hAMY3R: ratio of binding IC50 values
T2 sequence (P30988 25-474): T1 sequence (P30988 25-474)
T2 sequence (O60896 24-148 partner): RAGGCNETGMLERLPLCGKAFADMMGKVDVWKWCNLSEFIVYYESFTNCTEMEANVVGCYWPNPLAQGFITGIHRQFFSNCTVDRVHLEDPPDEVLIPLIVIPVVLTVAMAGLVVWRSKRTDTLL
Protocol: The apparent binding affinities were determined using a scintillation proximity assay with beads from PerkinElmer and cell membranes containing the AMY3R or CTRs. […] Membranes were harvested and membranes were prepared and kept at −80 °C until use. The assay was performed in a 384-well Optiplate (PerkinElmer). Membranes were mixed with scintillation proximity assay beads in a 1:1 ratio. […] Samples were analyzed on a TopCounter (Packard). The IC50 values were calculated using GraphPad Prism. See Supporting Information S7: SAR Screening Assay Methods (Binding Assays (Human and Rat)) for more information.
Binding Assays (Human and Rat). Brief descriptions of the methods used to determine binding affinities for SAR analysis are described below. Curves and IC50 values were plotted and calculated in GraphPad Prism using nonlinear regression (one site binding competition analysis), with pIC50 values […]
values were used to calculate the binding affinity ratios in order to express the selectivity of compounds for the AMY3R versus the CTR.
CTR Binding Assay. The binding assay was performed using scintillation proximity assay (SPA) beads (RPNQ0001) from PerkinElmer and cell membranes containing either the hCTR or rCTR. BHK […]
Membranes were prepared in the following way: the cells were rinsed with PBS and incubated with Versene for approximately 5 min before harvesting. The cells were flushed with PBS and the cell-suspension was centrifuged for 5 min at 1000 rpm. Cells were homogenized (Ultra Turrax) in a buffer […]
containing 20 mM Na-HEPES and 0.1 mM EDTA (pH 7.4, buffer 2). The resulting pellet was re-suspended in buffer 2 and protein concentration was measured (BCA protein assay, Pierce). The homogenate was kept cold during the whole procedure. The membranes were stored at –80 °C until […]
The binding assay was performed in a 384-well Optiplate (PerkinElmer) in a total volume of 40 μL.
Membranes were mixed with SPA beads in a 1:1 ratio. […]
mg/well. Test compounds were dissolved in DMSO and further diluted in assay buffer (50 mM HEPES, pH 7.4, 1 mM CaCl2, 5 mM MgCl2, 0.1% ovalbumin, and 0.02% Tween-20).
Calcitonin (NEX422 PerkinElmer) was dissolved in assay buffer and added to the Optiplate at a final […]
prior to centrifugation (1500 rpm, 10 min). Samples were analyzed on TopCounter (Packard).
AMY3R Binding Assay. The binding assay was performed using SPA beads (RPNQ0001) from PerkinElmer and cell membranes containing either the hAMY3R or rAMY3R. BHK tk-ts 13 cells were […]
and cultured as described above. Membranes were prepared in the following way: the cells were rinsed with PBS and incubated with Versene for approximately 5 min before harvesting. The cells were flushed with PBS and the cell-suspension was centrifuged for 5 min at 1000 rpm. Cells were homogenized (Ultra Turrax) in a buffer containing 20 mM Na-HEPES and 10 mM EDTA (pH 7.4), and […]
The resulting pellet was re-suspended, homogenized, and
7.4, buffer 2). The resulting pellet was re-suspended in buffer 2 and protein concentration was measured (BCA protein assay, Pierce). The homogenate was kept cold during the whole procedure.
The membranes were stored at –80 °C until use.
Membranes were mixed with SPA beads in a 1:1 ratio. The final concentration of SPA beads was 0.05 mg/well. Test compounds were dissolved in DMSO and further diluted in assay buffer (50 mM […]
rAMY (NEX448 PerkinElmer) was dissolved in assay buffer and added to the Optiplate at a final

Row | Structure (SMILES) | hCTR pEC50 (hCTR) | hAMY3R pIC50 (hAMY3R; SPA binding assay, Tables S13 and S15) | IC50 (hAMY3R; SPA, BHK cell membranes, 125I-rat amylin, 120 min 25 °C, read-out: hAMY3R IC50) [nM] | ratio hCTR/hAMY3R (hAMY3R) | EC50 (hCTR; BHK cells stably expressing hCTR and CRE-luciferase, 3 h, 37 °C, 10% FBS, read-out: hCTR EC50) [nM]
1 | CC(C)C[C@H](NC(=O)[C@H](CCCNC(=N)N)NC(=O)[C@H](CCC(N)=O)NC(=O)[C@@H](NC(=O)[C@H](C)NC(=O)[C@@H]1CSSC[C@H](NC(=O)[C@@H](N)CCCCNC(=O)CC[C@H](NC(=O)CC[C@H](NC(=O)CCCCCCCCCCCCCCCCCCC(=O)O)C(=O)O)C(=O)O)C(=O)N[C@@H](CC(N)=O)C(=O)N[C@@H]([C@@H](C)O)C(=O)N[C@@H](C)C(=O)N[C@@H]([C@@H](C)O)C(=O)N1)[C@@H](C)O)C(=O)N[C@@H](C)C(=O)N[C@@H](CC(=O)O)C(=O)N[C@@H](Cc1ccccc1)C(=O)N[C@@H](CC(C)C)C(=O)N[C@@H](CCCNC(=N)N)C(=O)N[C@@H](Cc1c[nH]cn1)C(=O)N[C@@H](CO)C(=O)N[C@@H](CO)C(=O)N[C@@H](CC(N)=O)C(=O)N1CCC[C@H]1C(=O)N[C@@H](Cc1ccccc1)C(=O)NCC(=O)N[C@@H](C)C(=O)N1CCC[C@H]1C(=O)N[C@@H](CC(C)C)C(=O)N[C@@H](CO)C(=O)N[C@@H](CO)C(=O)N[C@H](C(=O)N[C@@H](CC(N)=O)C(=O)N[C@H](C(=O)NCC(=O)N[C@@H](CO)C(=O)N[C@@H](CC(=O)O)C(=O)N[C@H](C(=O)N[C@@H](Cc1ccc(O)cc1)C(N)=O)[C@@H](C)O)C(C)C)[C@@H](C)O [Peptide 7] (H-K([γGlu-γGlu-C20 diacid])CNTATCATQRLADFLRHSSNPFGAPLSSTNVGSDTY-NH2; disulfide 2-7) | 8.86 | 8.95 | 1.12 | 10 | –
2 | CC[C@H](C)[C@H](NC(=O)[C@H](C)NC(=O)CNC(=O)[C@H](Cc1ccccc1)NC(=O)[C@H](CC(N)=O)NC(=O)[C@@H]1CCCN1C(=O)[C@H](CO)NC(=O)[C@H](CO)NC(=O)[C@H](Cc1c[nH]cn1)NC(=O)[C@H](CCCNC(=N)N)NC(=O)[C@H](CC(C)C)NC(=O)[C@H](Cc1ccccc1)NC(=O)[C@H](CCC(=O)O)NC(=O)[C@H](C)NC(=O)[C@H](CC(C)C)NC(=O)[C@H](CCCNC(=N)N)NC(=O)[C@H](CCC(N)=O)NC(=O)[C@@H](NC(=O)[C@H](C)NC(=O)[C@@H]1CSSC[C@H](NC(=O)[C@@H](N)CCCCNC(=O)CC[C@H](NC(=O)CCCCCCCCCCCCCCCCCCC(=O)O)C(=O)O)C(=O)N[C@@H](CC(N)=O)C(=O)N[C@@H]([C@@H](C)O)C(=O)N[C@@H](C)C(=O)N[C@@H]([C@@H](C)O)C(=O)N1)[C@@H](C)O)C(=O)N1CCC[C@H]1C(=O)N[C@@H](CO)C(=O)N[C@@H](CO)C(=O)N[C@H](C(=O)N[C@@H](CC(N)=O)C(=O)N[C@H](C(=O)NCC(=O)N[C@@H](CO)C(=O)N[C@@H](CCCNC(=N)N)C(=O)N[C@H](C(=O)N[C@@H](Cc1ccc(O)cc1)C(N)=O)[C@@H](C)O)C(C)C)[C@@H](C)O [Peptide 20] (H-K([γGlu-C20 diacid])CNTATCATQRLAEFLRHSSPNFGAIPSSTNVGSRTY-NH2; disulfide 2-7) | 8.28 | – | – | 31 | 5.2
3 | CC[C@H](C)[C@H](NC(=O)[C@H](C)NC(=O)CNC(=O)[C@H](Cc1ccccc1)NC(=O)[C@H](CC(N)=O)NC(=O)[C@@H]1CCCN1C(=O)[C@H](CO)NC(=O)[C@H](CO)NC(=O)[C@H](Cc1c[nH]cn1)NC(=O)[C@H](CCCNC(=N)N)NC(=O)[C@H](CC(C)C)NC(=O)[C@H](Cc1ccccc1)NC(=O)[C@H](CC(N)=O)NC(=O)[C@H](C)NC(=O)[C@H](CC(C)C)NC(=O)[C@H](CCCNC(=N)N)NC(=O)[C@H](CCC(N)=O)NC(=O)[C@@H](NC(=O)[C@H](C)NC(=O)[C@@H]1CSSC[C@H](NC(=O)[C@H](CCCCN)NC(=O)COCCOCCNC(=O)CC[C@H](NC(=O)CCCCCCCCCCCCCCCCCCC(=O)O)C(=O)O)C(=O)N[C@@H](CC(N)=O)C(=O)N[C@@H]([C@@H](C)O)C(=O)N[C@@H](C)C(=O)N[C@@H]([C@@H](C)O)C(=O)N1)[C@@H](C)O)C(=O)N1CCC[C@H]1C(=O)N[C@@H](CO)C(=O)N[C@@H](CO)C(=O)N[C@H](C(=O)N[C@@H](CC(N)=O)C(=O)N[C@H](C(=O)NCC(=O)N[C@@H](CO)C(=O)N[C@@H](Cc1c[nH]cn1)C(=O)N[C@H](C(=O)N[C@@H](Cc1ccc(O)cc1)C(N)=O)[C@@H](C)O)C(C)C)[C@@H](C)O [Peptide 18] ({C20 diacid-γGlu-AEEA}-KCNTATCATQRLANFLRHSSPNFGAIPSSTNVGSHTY-NH2; disulfide 2-7; N-terminus assumed) | – | – | – | 19 | –
